Tests used:
[1] = target: T1, PDGFr (mouse PDGF-β receptor tyrosine kinase) (Mus musculus, UniProt P05622); assay: PDGFr tyrosine kinase assay, 32P incorporation into glutamate-tyrosine copolymer; type: biochemical; details: 50 μM ATP
T1 construct: PCR primers are designed to amplify a fragment of DNA that codes for the intracellular tyrosine kinase domain; made in house; host or cells: Sf9 insect cells (baculovirus), cell lysate
Protocol: Platelet Derived Growth Factor Receptor (PDGFr) and Fibroblast Growth Factor Receptor (FGFr). Full length cDNAs for the mouse PDGF-β and human FGF-1 (flg) receptor tyrosine kinases were obtained from J. Escobedo and are prepared as described in J. Biol. Chem., 1991;262:1482-1487. PCR primers are designed to amplify a fragment of DNA that codes for the intracellular tyrosine kinase domain. The fragment is melded into a baculovirus vector, cotransfected with AcMNPV DNA, and the recombinant virus isolated. SF9 insect cells are infected with the virus to overexpress the protein, and the cell lysate is used for the assay.
PDGFr and FGFr. […] Briefly, to each well is added 82.5 μL of incubation buffer containing 25 mM Hepes (pH 7.0), 150 mM NaCl, 0.1% Triton X-100, 0.2 mM PMSF, 0.2 mM sodium vanadate, 10 mM manganese chloride, and 750 μg/mL of poly (4:1) glutamate-tyrosine followed by 2.5 μL of inhibitor and 5 μL of enzyme lysate (7.5 μg/μL FGFR-TK or 6.0 μg/μL PDGFR-TK) to initiate the reaction. Following a 10 minute incubation at 25° C., 10 μL of [γ^32 P]ATP (0.4 μCi plus 50 μM ATP) is added to each well, and samples are incubated for an additional 10 minutes at 25° C. The reaction is terminated by the addition of 100 μL of 30% trichloroacetic acid (TCA) containing 20 mM sodium pyrophosphate and precipitation of material onto glass fiber filter mats (Wallac). […] Nonspecific activity is defined as radioactivity retained on the filters following incubation of samples with buffer alone; (no enzyme). Specific enzymatic activity is defined as total activity (enzyme plus buffer) minus nonspecific activity.

[2] = target: T2, EGFr (Human EGF receptor tyrosine kinase) (Homo sapiens, UniProt P00533); assay: EGFr tyrosine kinase assay; type: biochemical; details: 10 μM ATP
T2 construct: Human EGF receptor tyrosine kinase is isolated from A431 human epidermoid carcinoma cells; endogenous in cells; host or cells: A431 human epidermoid carcinoma cells (detergent lysate, Q Sepharose fractions)
Protocol: Epidermal Growth Factor Receptor (EGFr). Human EGF receptor tyrosine kinase is isolated from A431 human epidermoid carcinoma cells by the following method. Cells were grown in roller bottles in 50% Dulbecco's Modified Eagle medium and 50% HAM F-12 nutrient media (Gibco) containing 10% fetal calf serum. Approximately 10^9 cells are lysed in two volumes of buffer containing 20 mM 2-(4N-[2-[…]]piperazin-1-yl)ethanesulfonic acid (Hepes), pH 7.4, 5 mM ethylene glycol bis(2-aminoethyl ether) N,N,N',N'-tetraacetic acid (EGTA), 1% Triton X-100, 10% glycerol, 0.1 mM sodium orthovanadate, 5 mM sodium fluoride, 4 mM pyrophosphate, 4 mM benzamide, 1 mM dithiothreitol (DTT), 80 μg/mL aprotinin, 40 μg/mL leupeptin, and 1 mM phenylmethylsulfonyl fluoride (PMSF). After centrifugation at 25,000×g for 10 minutes, the supernatant is applied to a fast Q sepharose column (Pharmacia) and eluted with a linear gradient from 0.1 M NaCl to 0.4 M NaCl in 50 mM Hepes, 10% glycerol, pH 7.4. Enzyme active fractions are pooled, divided into aliquots, and stored at -100° C.
(§1) EGFr. Enzyme assays for IC50 determinations are performed in 96-well filter plates (Millipore MADVN6550). The total volume is 0.1 mL containing 20 mM Hepes, pH 7.4, 50 μM sodium vanadate, 40 mM magnesium chloride, 10 μM ATP containing 0.5 μCi of [^32 P]ATP, 20 μg of polyglutamic acid/tyrosine (Sigma Chemical Co., St. Louis, Mo.), 10 ng of EGF receptor tyrosine kinase and appropriate dilutions of inhibitor. All components except the ATP are added to the well, and the plate is incubated with shaking for 10 minutes at 25° C. The reaction is started by adding [^32 P]ATP, and the plate is incubated at 25° C. for 10 minutes. The reaction is terminated by addition of 0.1 mL of 20% trichloroacetic acid (TCA). The plate is kept at 4° C. for at least 15 minutes to allow the substrate to precipitate. The wells are then washed five times with 0.2 mL of 10% TCA, and ^32 P incorporation is determined with a Wallac beta plate counter.

insulin receptor (INSr) = target: T3, insulin receptor (INSr) (Homo sapiens, UniProt P06213); assay: Insulin receptor (INSr) kinase assay; type: biochemical; details: 10 mM manganese chloride
T3 construct: An assay using the intracellular kinase domains of insulin receptor (INSr)
Protocol: as §1
(§2) Other Kinases. An assay using the intracellular kinase domains of insulin receptor (INSr) is performed as described for the EGF receptor except that 10 mM manganese chloride is included in the reaction. The PKC assay is performed as previously described by Martiny-Baron, et al., J. Biol. Chem., 1993;268:9194-9197.

Protein kinase C (PKC) = Protein kinase C (PKC) assay; type: biochemical; details: rat brain preparation
Protocol: Other Kinases. c-Src kinase is purified from baculovirus infected insect cell lysates using an antipeptide monoclonal antibody directed against the N-terminal 2-17 amino acids as described previously by Fry, et al., Anticancer Drug Design, 1994;9:331-351. Protein kinase C (PKC.) is obtained as a rat brain preparation from Promega.
as §2

HCT-8 cells = assay: Human Colon Carcinoma Growth Delay Assay, HCT-8; type: cell-based; details: 72 h, HCT-8, 3 days
Protocol: (§3) Human Colon Carcinoma Growth Delay Assay. Human colon carcinoma cells are seeded into 96-well tissue culture plates in a final volume of 180 μL of 10% fetal bovine serum containing growth media and allowed to incubate overnight (37° C., 5% CO2, 95% air). Cells of the SW-620 cell line are seeded at 1.0-1.5×10^4 cells per well. Cells of the HCT-8 and HT-29 cell lines are seeded at 2-4×10^3 cells per well. Serially diluted drug solutions are prepared in growth medium at 10 times concentration; 20 μL of these solutions are added to duplicate wells and incubated with the cells for 3 days in a cell culture incubator. At the end of the incubation period, cells are fixed with 100 μL per well of 10% trichloroacetic acid after removing the drug/culture medium. The plates are washed five times with tap water and stained with 100 μL per well of 0.075% sulfrhodamine B in 1% acetic acid for 10 minutes. The plates are rinsed four times and allowed to air dry. The stain in the wells are solubilized by the addition of 10 mM unbuffered Tris base and the absorbance read using a microtiter plate optical reader. Inhibition of cell growth is calculated from absorbance data of the treated cells compared to untreated control cells.

HT-29 cells = assay: Human Colon Carcinoma Growth Delay Assay, HT-29; type: cell-based; details: 72 h, HT-29, 3 days
Protocol: as §3

T2 sequence (P00533 25-1210): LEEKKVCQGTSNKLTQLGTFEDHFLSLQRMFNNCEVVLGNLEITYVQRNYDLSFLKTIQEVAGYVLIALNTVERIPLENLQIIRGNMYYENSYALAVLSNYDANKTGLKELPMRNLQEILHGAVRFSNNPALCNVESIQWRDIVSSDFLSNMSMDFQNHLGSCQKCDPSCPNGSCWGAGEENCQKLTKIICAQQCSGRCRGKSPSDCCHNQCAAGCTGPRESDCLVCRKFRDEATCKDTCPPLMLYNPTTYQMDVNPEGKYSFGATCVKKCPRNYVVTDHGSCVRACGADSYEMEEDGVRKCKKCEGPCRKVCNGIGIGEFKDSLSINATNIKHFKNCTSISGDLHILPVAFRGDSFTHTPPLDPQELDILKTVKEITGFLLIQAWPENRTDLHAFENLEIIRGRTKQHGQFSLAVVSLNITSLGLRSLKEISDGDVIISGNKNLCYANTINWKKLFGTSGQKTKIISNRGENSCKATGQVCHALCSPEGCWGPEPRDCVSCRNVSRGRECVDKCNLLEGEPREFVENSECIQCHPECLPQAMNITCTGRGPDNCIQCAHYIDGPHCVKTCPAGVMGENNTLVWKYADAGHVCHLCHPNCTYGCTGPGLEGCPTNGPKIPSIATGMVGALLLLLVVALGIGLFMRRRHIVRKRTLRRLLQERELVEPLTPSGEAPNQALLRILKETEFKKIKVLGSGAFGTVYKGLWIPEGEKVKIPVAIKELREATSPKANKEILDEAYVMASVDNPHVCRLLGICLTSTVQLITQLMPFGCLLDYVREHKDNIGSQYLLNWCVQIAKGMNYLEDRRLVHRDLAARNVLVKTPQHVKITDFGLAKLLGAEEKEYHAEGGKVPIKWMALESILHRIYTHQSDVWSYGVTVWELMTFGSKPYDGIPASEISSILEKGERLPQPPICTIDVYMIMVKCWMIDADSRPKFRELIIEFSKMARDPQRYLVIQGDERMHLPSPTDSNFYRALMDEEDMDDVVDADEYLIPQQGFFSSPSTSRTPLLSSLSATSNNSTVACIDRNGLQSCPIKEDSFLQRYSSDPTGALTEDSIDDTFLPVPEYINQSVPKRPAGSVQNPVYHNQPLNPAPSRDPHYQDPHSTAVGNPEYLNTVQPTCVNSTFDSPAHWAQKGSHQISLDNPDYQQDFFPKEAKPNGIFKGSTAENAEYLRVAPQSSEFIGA
T3 sequence (P06213 1023-1298 limits assumed, species assumed): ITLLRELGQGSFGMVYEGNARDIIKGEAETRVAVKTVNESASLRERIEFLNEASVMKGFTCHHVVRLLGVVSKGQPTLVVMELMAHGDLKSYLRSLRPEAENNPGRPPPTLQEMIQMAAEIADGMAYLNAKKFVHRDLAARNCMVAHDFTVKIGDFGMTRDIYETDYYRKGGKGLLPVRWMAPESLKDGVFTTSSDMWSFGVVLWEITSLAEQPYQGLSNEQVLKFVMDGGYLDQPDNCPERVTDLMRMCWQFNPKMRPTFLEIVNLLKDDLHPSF
T1 sequence (P05622 599-961 limits assumed): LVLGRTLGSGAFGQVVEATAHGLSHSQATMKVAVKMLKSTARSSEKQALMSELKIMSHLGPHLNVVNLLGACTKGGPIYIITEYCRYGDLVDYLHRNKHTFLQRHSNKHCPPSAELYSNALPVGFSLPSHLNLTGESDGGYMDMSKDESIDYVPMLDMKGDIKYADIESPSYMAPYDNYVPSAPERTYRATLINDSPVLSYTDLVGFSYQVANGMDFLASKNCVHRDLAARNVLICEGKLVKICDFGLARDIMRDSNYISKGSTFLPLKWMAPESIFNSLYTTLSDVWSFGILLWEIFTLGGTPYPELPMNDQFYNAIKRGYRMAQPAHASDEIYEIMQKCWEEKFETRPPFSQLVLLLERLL

Row | Structure (SMILES) | IC50 [1] | IC50 [2] | IC50 (insulin receptor (INSr)) | IC50 (Protein kinase C (PKC)) | IC50 (HCT-8 cells) | IC50 (HT-29 cells)
1 | CN1CCN(CCCNc2cc3c(cn2)cc(-c2c(Cl)cccc2Cl)c(=O)n3C)CC1 [Example H, 3-(2,6-dichlorophenyl)-1-methyl-7-[3-(4-methylpiperazin-1-yl)propylamino]-1H-[1,6]naphthyridin-2-one] | 890 nM | 3200 nM | > 50000 nM | < 50000 nM | 2800 nM | 2200 nM
2 | CCN(CC)CCCCNc1cc2c(cn1)cc(-c1c(Cl)cccc1Cl)c(=O)n2C [Example F, 3-(2,6-dichlorophenyl)-7-[4-(diethylamino)butylamino]-1-methyl-1H-[1,6]naphthyridin-2-one] | 420 nM | 3800 nM | > 50000 nM | > 50000 nM | 2300 nM | 1500 nM
3 | CCN(CC)CCOc1ccc(Nc2cc3c(cn2)cc(-c2c(Cl)cccc2Cl)c(=O)n3C)cc1 [Example P, 3-(2,6-dichlorophenyl)-7-[(4-(2-(diethylamino)ethoxy)phenyl)amino]-1-methyl-1H-[1,6]naphthyridin-2-one] | 90 nM | 590 nM | > 50000 nM | > 50000 nM | 2800 nM | 800 nM
4 | CN1CCN(CCOc2ccc(Nc3cc4c(cn3)cc(-c3c(Cl)cccc3Cl)c(=O)n4C)cc2)CC1 [Example S, 3-(2,6-dichlorophenyl)-1-methyl-7-[(4-(2-(4-methylpiperazin-1-yl)ethoxy)phenyl)amino]-1H-[1,6]naphthyridin-2-one] | 340 nM | – | – | – | 5200 nM | 900 nM
